Laboratory results published in ChEMBL document CHEMBL1138948, “Design, synthesis, and evaluation of proline and pyrrolidine based melanocortin receptor agonists. A conformationally restricted dipeptide mimic approach” (J Med Chem, 2006).
One block for each molecule: values may come before it. Non-standard residues stand in square brackets, D forms with d. Residues, ends and D or L forms follow the SMILES beside them. 2Nal = N[C@@H](Cc1ccc2ccccc2c1)C(=O)O

What was measured:
[1] = target: T1, Melanocyte-stimulating hormone receptor (Homo sapiens, UniProt Q01726); test: Agonist activity at human MC1R transfected in HEK293 cells; type: functional, cell-based
T1 sequence (Q01726 whole entry): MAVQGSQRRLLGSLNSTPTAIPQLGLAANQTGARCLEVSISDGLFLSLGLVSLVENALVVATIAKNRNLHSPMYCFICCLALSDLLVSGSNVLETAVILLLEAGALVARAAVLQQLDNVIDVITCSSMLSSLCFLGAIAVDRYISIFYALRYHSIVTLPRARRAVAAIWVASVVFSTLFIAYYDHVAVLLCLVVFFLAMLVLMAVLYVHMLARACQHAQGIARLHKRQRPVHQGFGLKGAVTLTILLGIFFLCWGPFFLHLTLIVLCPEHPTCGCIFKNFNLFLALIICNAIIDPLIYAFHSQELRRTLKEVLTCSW

[2] = target: T2, Melanocortin receptor 4 (Homo sapiens, UniProt P32245); test: Displacement of europium labeled NDP-alpha-MSH from human MC4R expressed in HEK293 cells; type: cell-based
T2 sequence (P32245 whole entry): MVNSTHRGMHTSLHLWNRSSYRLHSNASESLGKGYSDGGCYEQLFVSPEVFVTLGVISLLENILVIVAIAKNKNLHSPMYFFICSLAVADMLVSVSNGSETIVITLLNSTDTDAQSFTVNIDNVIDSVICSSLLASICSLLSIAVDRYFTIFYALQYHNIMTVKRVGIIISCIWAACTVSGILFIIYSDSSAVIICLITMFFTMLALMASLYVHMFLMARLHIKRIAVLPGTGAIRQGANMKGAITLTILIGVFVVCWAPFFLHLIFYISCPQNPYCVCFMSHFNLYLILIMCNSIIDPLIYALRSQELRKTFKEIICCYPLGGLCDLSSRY

[3] = target: T2, Melanocortin receptor 4; test: Agonist activity at human MC4R transfected in HEK293 cells; type: functional, cell-based
[4] = target: T3, Melanocortin receptor 3 (Homo sapiens, UniProt P41968); test: Displacement of europium labeled NDP-alpha-MSH from human MC3R expressed in HEK293 cells; type: cell-based
T3 sequence (P41968 whole entry): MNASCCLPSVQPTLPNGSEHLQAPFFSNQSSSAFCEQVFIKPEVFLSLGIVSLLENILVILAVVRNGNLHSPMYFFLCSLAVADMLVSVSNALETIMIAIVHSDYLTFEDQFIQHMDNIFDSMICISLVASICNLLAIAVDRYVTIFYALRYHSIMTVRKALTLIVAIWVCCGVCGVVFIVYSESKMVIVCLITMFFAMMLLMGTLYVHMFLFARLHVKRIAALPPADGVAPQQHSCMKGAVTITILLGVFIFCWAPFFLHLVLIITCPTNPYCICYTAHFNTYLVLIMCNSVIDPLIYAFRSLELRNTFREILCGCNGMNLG

[5] = target: T3, Melanocortin receptor 3; test: Agonist activity at human MC3R transfected in HEK293 cells; type: functional, cell-based
[6] = target: T1, Melanocyte-stimulating hormone receptor; test: Displacement of europium labeled NDP-alpha-MSH from human MC1R expressed in HEK293 cells; type: cell-based

Compound: NC(=O)C[C@H](N)C(=O)N[C@H](Cc1ccccc1)C(=O)N1C[C@@H](OCc2ccc3ccccc3c2)C[C@H]1CCCN=C(N)N
EC50 [1]: 521 nM
Ki [2]: 8160 nM
EC50 [3]: 1620 nM
Ki [4]: 29100 nM
EC50 [5]: 2990 nM
Ki [6]: 1570 nM

Compound: N=C(N)NCCC[C@@H]1C[C@@H](OCc2ccc3ccccc3c2)CN1C(=O)[C@@H](Cc1ccccc1)NC(=O)[C@@H]1CCCCN1
EC50 [1]: 449 nM
Ki [2]: 1710 nM
EC50 [3]: 10800 nM
Ki [4]: 7440 nM
Ki [6]: 340 nM

Compound: CNC(=O)[C@H](Cc1ccc2ccccc2c1)NC(=O)[C@H](CCCN=C(N)N)NC(=O)[C@@H](Cc1ccccc1)NC(=O)[C@H](Cc1ccc(O)cc1)NC(C)=O (Ac-Y[dF]R[2Nal]-NHMe)
EC50 [1]: 20000 nM

Compound: NC(=O)C[C@H](N)C(=O)N[C@H](Cc1ccccc1)C(=O)N1C[C@H](OCc2ccc3ccccc3c2)C[C@H]1CCCN=C(N)N
EC50 [1]: 402 nM
Ki [2]: 6670 nM
EC50 [3]: 20000 nM
Ki [4]: 15400 nM
Ki [6]: 443 nM

Compound: N=C(N)NCCNC(=O)[C@H]1C[C@@H](OCc2ccc3ccccc3c2)CN1C(=O)[C@@H](Cc1ccccc1)NC(=O)[C@@H]1CCCCN1
EC50 [1]: 390 nM
Ki [2]: 1380 nM
EC50 [3]: 292 nM
Ki [4]: 3850 nM
EC50 [5]: 1770 nM
Ki [6]: 631 nM

Compound: NC(N)=NCCC[C@H]1C[C@@H](OCc2ccc3ccccc3c2)CN1C(=O)[C@H](N)Cc1ccccc1
EC50 [1]: 151 nM
Ki [2]: 305 nM
EC50 [3]: 291 nM
Ki [4]: 1240 nM
EC50 [5]: 871 nM
Ki [6]: 381 nM

Compound: CC(=O)N[C@@H](Cc1ccc(O)cc1)C(=O)N[C@H](Cc1ccccc1)C(=O)N1C[C@H](OCc2ccc3ccccc3c2)C[C@H]1CCCN=C(N)N
EC50 [1]: 1750 nM
Ki [2]: 2350 nM
EC50 [3]: 20000 nM
Ki [4]: 19200 nM
Ki [6]: 1690 nM

Compound: CNC(=O)[C@H](Cc1ccc2ccccc2c1)NC(=O)[C@H](CCCN=C(N)N)NC(=O)[C@H](N)Cc1ccccc1
EC50 [1]: 20000 nM
Ki [2]: 2010 nM
EC50 [3]: 809 nM
Ki [4]: 22600 nM
Ki [6]: 4380 nM

Compound: CC(=O)N[C@@H](Cc1ccc(O)cc1)C(=O)N[C@H](Cc1ccccc1)C(=O)N1C[C@@H](OCc2ccc3ccccc3c2)C[C@H]1CCCN=C(N)N
EC50 [1]: 1810 nM
Ki [2]: 492 nM
EC50 [3]: 252 nM
Ki [4]: 2880 nM
EC50 [5]: 1170 nM
Ki [6]: 2450 nM

Compound: N=C(N)NCCC[C@H]1C[C@@H](OCc2ccc3ccccc3c2)CN1C(=O)[C@@H](Cc1ccccc1)NC(=O)[C@@H]1Cc2ccccc2CN1
EC50 [1]: 98 nM
Ki [2]: 10 nM
EC50 [3]: 10 nM
Ki [4]: 86 nM
EC50 [5]: 232 nM
Ki [6]: 42 nM

Compound: CC(=O)N[C@@H](CCC(N)=O)C(=O)N[C@H](Cc1ccccc1)C(=O)N1C[C@H](OCc2ccc3ccccc3c2)C[C@@H]1C(=O)NCCN=C(N)N
EC50 [1]: 328 nM
Ki [2]: 632 nM
EC50 [3]: 184 nM
Ki [4]: 1490 nM
EC50 [5]: 563 nM
Ki [6]: 893 nM

Compound: N=C(N)NCCC[C@H]1C[C@H](OCc2ccc3ccccc3c2)CN1C(=O)[C@@H](Cc1ccccc1)NC(=O)[C@@H]1Cc2ccccc2CN1
EC50 [1]: 72 nM
Ki [2]: 97 nM
EC50 [3]: 36 nM
Ki [4]: 529 nM
EC50 [5]: 214 nM
Ki [6]: 562 nM

Compound: CC(=O)N[C@@H](Cc1ccc(O)cc1)C(=O)N[C@H](Cc1ccccc1)C(=O)N1C[C@@H](OCc2ccc3ccccc3c2)C[C@@H]1CCCN=C(N)N
EC50 [1]: 71 nM
Ki [2]: 248 nM
EC50 [3]: 39 nM
Ki [4]: 425 nM
EC50 [5]: 68 nM
Ki [6]: 138 nM

Compound: CC(=O)N[C@@H](Cc1ccccc1)C(=O)N[C@H](Cc1ccccc1)C(=O)N1C[C@H](OCc2ccc3ccccc3c2)C[C@@H]1CCCN=C(N)N
EC50 [1]: 201 nM
Ki [2]: 59 nM
EC50 [3]: 20 nM
Ki [4]: 154 nM
EC50 [5]: 313 nM
Ki [6]: 182 nM

Compound: NC(N)=NCCNC(=O)[C@H]1C[C@@H](OCc2ccc3ccccc3c2)CN1C(=O)[C@@H](Cc1ccccc1)NC(=O)C1CCNCC1
EC50 [1]: 104 nM
Ki [2]: 1020 nM
EC50 [3]: 501 nM
Ki [4]: 3180 nM
EC50 [5]: 2470 nM
Ki [6]: 121 nM

Compound: N=C(N)NCCC[C@@H]1C[C@H](OCc2ccc3ccccc3c2)CN1C(=O)[C@@H](Cc1ccccc1)NC(=O)[C@@H]1Cc2ccccc2CN1
EC50 [1]: 1360 nM
Ki [2]: 670 nM
EC50 [3]: 457 nM
Ki [4]: 4180 nM
EC50 [5]: 3150 nM
Ki [6]: 1400 nM

Compound: N=C(N)NCCC[C@@H]1C[C@H](OCc2ccc3ccccc3c2)CN1C(=O)[C@@H](Cc1ccccc1)NC(=O)[C@@H]1CCCCN1
EC50 [1]: 1070 nM
Ki [2]: 2260 nM
EC50 [3]: 515 nM
Ki [4]: 7160 nM
Ki [6]: 1790 nM

Compound: NC(N)=NCCC[C@H]1C[C@@H](OCc2ccc3ccccc3c2)CN1C(=O)[C@@H](Cc1ccccc1)NC(=O)CCc1ccccc1
EC50 [1]: 585 nM
Ki [2]: 137 nM
EC50 [3]: 266 nM
Ki [4]: 403 nM
EC50 [5]: 2050 nM
Ki [6]: 611 nM

Molecules with a lower EC50 [1], results first:

EC50 [1]: 0.3 nM
Ki [2]: 17 nM
EC50 [3]: 3.7 nM
Ki [4]: 26 nM
EC50 [5]: 15 nM
Ki [6]: 0.65 nM
Compound: CC(=O)N[C@@H](Cc1cnc[nH]1)C(=O)N[C@H](Cc1ccccc1)C(=O)N1C[C@H](OCc2ccc3ccccc3c2)C[C@@H]1CCCN=C(N)N

EC50 [1]: 30 nM
Ki [2]: 31 nM
EC50 [3]: 14 nM
Ki [4]: 156 nM
EC50 [5]: 260 nM
Ki [6]: 40 nM
Compound: NC(N)=NCCC[C@H]1C[C@@H](OCc2ccc3ccccc3c2)CN1C(=O)[C@@H](Cc1ccccc1)NC(=O)[C@@H]1CCCCN1

EC50 [1]: 28 nM
Ki [2]: 121 nM
EC50 [3]: 54 nM
Ki [4]: 1260 nM
EC50 [5]: 286 nM
Ki [6]: 125 nM
Compound: N=C(N)NCCC[C@H]1C[C@H](OCc2ccc3ccccc3c2)CN1C(=O)[C@@H](Cc1ccccc1)NC(=O)[C@@H]1CCCCN1

EC50 [1]: 45 nM
Ki [2]: 18 nM
EC50 [3]: 4.3 nM
Ki [4]: 50 nM
EC50 [5]: 42 nM
Ki [6]: 35 nM
Compound: CC(=O)N[C@@H](CCC(N)=O)C(=O)N[C@H](Cc1ccccc1)C(=O)N1C[C@H](OCc2ccc3ccccc3c2)C[C@@H]1CCCN=C(N)N

EC50 [1]: 19 nM
Ki [2]: 4390 nM
EC50 [3]: 1090 nM
Ki [4]: 8100 nM
EC50 [5]: 1470 nM
Ki [6]: 19 nM
Compound: N=C(N)NCCC[C@@H]1C[C@@H](OCc2ccc3ccccc3c2)CN1C(=O)[C@@H](Cc1ccccc1)NC(=O)[C@@H]1Cc2ccccc2CN1

EC50 [1]: 24 nM
Ki [2]: 760 nM
EC50 [3]: 249 nM
Ki [4]: 703 nM
EC50 [5]: 266 nM
Ki [6]: 15 nM
Compound: NC(N)=NCCNC(=O)[C@H]1C[C@@H](OCc2ccc3ccccc3c2)CN1C(=O)[C@@H](Cc1ccccc1)NC(=O)[C@@H](N)Cc1c[nH]cn1

EC50 [1]: 14 nM
Ki [2]: 29 nM
EC50 [3]: 5.7 nM
Ki [4]: 1200 nM
EC50 [5]: 541 nM
Ki [6]: 13 nM
Compound: CNC(=O)[C@H](Cc1ccc2ccccc2c1)NC(=O)[C@H](CCCN=C(N)N)NC(=O)[C@@H](Cc1ccccc1)NC(=O)[C@H](Cc1c[nH]cn1)NC(C)=O

EC50 [1]: 14 nM
Ki [4]: 2860 nM
EC50 [5]: 248 nM
Ki [6]: 35 nM
Compound: CC(=O)N[C@@H](Cc1c[nH]cn1)C(=O)N[C@@H](Cc1ccccc1)C(=O)N[C@@H](CCCN=C(N)N)C(=O)N[C@@H](Cc1c[nH]c2ccccc12)C(N)=O

EC50 [1]: 4.3 nM
Ki [2]: 187 nM
EC50 [3]: 8 nM
Ki [4]: 835 nM
EC50 [5]: 10 nM
Ki [6]: 103 nM
Compound: NC(=O)C[C@H](N)C(=O)N[C@H](Cc1ccccc1)C(=O)N1C[C@@H](OCc2ccc3ccccc3c2)C[C@@H]1CCCN=C(N)N

EC50 [1]: 8 nM
Ki [2]: 2880 nM
EC50 [3]: 986 nM
Ki [4]: 7230 nM
EC50 [5]: 3720 nM
Ki [6]: 4.7 nM
Compound: CC(=O)N[C@@H](Cc1c[nH]cn1)C(=O)N[C@H](Cc1ccccc1)C(=O)N1C[C@H](OCc2ccc3ccccc3c2)C[C@H]1CCCN=C(N)N
